Experimental findings from patent publication US20130136778A1, “PTEROSTILBENE (PTER) FOR USE IN THE PREVENTION AND/OR TREATMENT OF SKIN DISEASES, DAMAGES OR INJURIES” (GREEN MOLECULAR, S.L., priority 2009, published 2013) are described below.

For data set [1], the system named is SKH-1 mice. Put plainly: Photocarcinogenesis: chronic exposure to UV-B, precancerous lesions/tumors per mouse. To be noted: after 30 weeks of chronic exposure to UV-B. In kind it is in vivo. The source says:
The role of UV-B radiation in tumor formation is well known. The continuous exposure to UV-B promotes the formation of oxidative/nitrosative stress, along with alterations in DNA, proteins, etc. that activates various transcription factors (among them NF-κB and AP-1), increase in the telomerase activity, stress, etc. which in turn induces carcinogenesis.
The mice chosen for this study were SKH-1.
The protocol used was the standardized protocol, whereby several mice were irradiated three times per week with a dose of 180 mJ/cm^2 with exposures for 24 weeks; however, […], in order to obtain more evidence of the photoprotector effect on the different treatments used.
The dose of exposure was 180 mJ/cm2, since it had been determined in previous trials that this was the minimal erythemic dose (MED) for this type of rodent.
A range of different commercial photoprotectors were included in this study: • Vichy: Capital Soleil SPF-50+(Vichy Laboratoires). • Isdin: Photoprotector Isdin Extrem (SPF-40 (Isdin SA) • Heliocare: Heliocare gel Protection Ultra 90 (Difa Cooper S.P.A.)
Both the reference compounds and the ones subject of this study were applied to the back of the mice for 20 minutes prior to their exposure to UV-B. […]
During the photocarcinogenesis process, the presence of different tumors was followed and quantified throughout the process. […]

A short description of data set [2]: Absorption spectrum of polyphenols (mechanical filter capacity). The following applies: 1 mM in pure ethanol, 200-800 nm. In kind it is physicochemical. The procedure:
A solution of 1 mM of each polyphenol was prepared (PTER, Resveratrol and QUER) in absolute ethanol (HPLS quality; Quima) and the absorption spectrum was studied between 200 and 800 nm using a Multiskan Spectrum (ThermoScientific).
With the purpose of studying the capacity of the polyphenols used in this study, we decided to evaluate the absorption of light throughout the ultraviolet light spectrum as shown in FIG. 13.

The subject of data set [3] is SKH-1 mice. As to the kind of experiment: Experimental psoriasis induced by TPA. Format: in vivo.
Method: For the induction of psoriasis, the agent “12-O-tetradecanoylphorbol-13 acetate” (TPA) was used.
Since our objective was to assess the progress of the lesions caused by psoriasis in combination with the use of polyphenols, a model of continuous exposure and a weaker concentration of TPA were used, on a daily dose of 2 nmoles of TPA over a period of a week, which allowed us to observe the progress of the psoriasis.
The induction was performed with 2 nmol TPA/mouse on an area of 1 cm^2, applying 10 μL of the 200 μM solution in acetone. This application protocol was carried out taking into account that when applying 20 μL as stated in the model, the volume increased considerably and it lost its concentration, therefore it was decided to make it more concentrated.
As a standard treatment, Dexamethasone was used, (from Sigma Solution 25 mM in acetone). The administration of the standard treatment and the products to be tested were given 30 minutes prior to the application of TPA, both beginning on the same day.
The groups, of 6 mice, for this assessment were: • Not treated. • Reference compound: 0.5 μmoles of Dexamethasone (200 μL of one solution 25 mM in acetone). • Medium: 200 μl of vacuumed Liposomes. • Resveratrol: 200 μL of Resveratrol Liposomes (10 μmol in total). • PTER: 200 μL of PTER Liposomes (10 μmol in total). • QUER: 200 μL of QUER Liposomes (10 μmol in total). • PTER+QUER:: 200 μL of PTER Liposomes+QUER (10 μmol in total).
At 24 hours (day 7) after the last administration of the different treatments and TPA, 3 mice from each group were sacrificed and their skin fixed with 4% PFA. The remaining mice were kept under the treatment with no exposure to TPA, to verify if the skin recovered faster on the treatment than on its own. At 24 hours (day 9) after the last administration of the different treatments the rest of the mice were sacrificed and their skin fixed with 4% PFA.
The flaky aspect of the skin was quantified in a scale of 0-3, being 0, nothing; 1, mild; 2, moderate; 3, severe.

Molecule `COc1cc(/C=C/c2ccc(O)cc2)cc(OC)c1` [PTER, 3,5-dimethoxy-4′-hydroxy-trans-resveratrol] yielded a mice presenting lesions in the data set on SKH-1 mice [1] of 10%. Moreover, the “absorption of light, range of maximum absorption” value in data set [2] is reported as “peaks or maximum absorption in the range of Ultraviolet B”. For the same molecule, the “index of excoriation or descaling (scale 0-3)” value in the data set with SKH-1 mice [3] (24 hours after 7 administrations of TPA) is “fewer indexes of excoriation or descaling”. Further, in the data set on SKH-1 mice [3] (FIG. 23, 6 consecutive days, treatment 30 min prior to 2 nmol TPA), the “increase of skinfold throughout the procedure” value is “an important decrease in the increase of skinfolds”. In addition, the “increase in the skinfold 24 hours after the first administration of TPA” value with SKH-1 mice [3] (FIG. 24, treatment 30 min prior to 2 nmol TPA) is listed as “significantly diminished the appearance of edema”. In the data set with SKH-1 mice [3] (FIG. 25), the “skinfold after 3 administrations of TPA” value is “produce a diminishing effect on the inflammation produced by TPA”. For the same molecule, in the data set with SKH-1 mice [3] (FIG. 28, hematoxylin-eosin, TPA daily over 7 days), the “histological analysis of the lesions” value is recorded as “no signs of papillomatosis, but there was acanthosis due to a massive proliferation”.
